Results on ten compounds are retold here after PubChem BioAssay (NCI).

Test systems include EKVX NSCLC; COLO 205 colon; OVCAR-3 ovarian; SN12C renal; M14 melanoma; ACHN renal; HOP-92 NSCLC; OVCAR-8 ovarian; CCRF-CEM leukemia; MALME-3M melanoma.
What all share (assay): DTP human tumour cell line panel, 48 h

One may read the TGI as the concentration at which net growth stops. Read a high TGI as lower sensitivity of the cells. By GI50 is commonly meant the concentration giving 50% growth inhibition.

Molecules are shown by their SMILES.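 Test compounds were applied to cells in 96-well plates for 48 hours at 5 doses. At the GI50, growth is halved. TGI denotes the concentration required for complete inhibition of growth.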

Consider `O=[N+]([O-])c1cc(Cl)ccc1OCc1ccccc1`, for which the concentration for total growth inhibition (TGI) with EKVX NSCLC, in the assay with COLO 205 colon, in the assay on OVCAR-3 ovarian, with SN12C renal, in the assay on M14 melanoma and in the assay on ACHN renal was more than 100 µM each time. Further, the total growth inhibition concentration (TGI) in the assay with HOP-92 NSCLC was 92.5 µM; with OVCAR-8 ovarian, more than 100 µM; in the assay on CCRF-CEM leukemia it was more than 100 µM; with MALME-3M melanoma, more than 100 µM.

Regarding `Cn1c2ccccc2c2c3[nH][nH]c(=O)c3c3c4ccccc4[nH]c3c21`, the GI50 in the assay on EKVX NSCLC was 2.41 µM; with COLO 205 colon, 4.74 µM; in the assay on OVCAR-3 ovarian it was 1.94 µM; in the assay on SN12C renal it was 2.33 µM; in the assay with M14 melanoma, 3.05 µM; in the assay on ACHN renal, 2.6 µM. For the same compound, the GI50 in the assay with HOP-92 NSCLC was 3.73 µM; in the assay with OVCAR-8 ovarian, 2.9 µM; with CCRF-CEM leukemia, 2.89 µM; with MALME-3M melanoma, 5.24 µM. For the same compound, the concentration for total growth inhibition (TGI) in the assay on EKVX NSCLC was 8.1 µM; in the assay with COLO 205 colon, 21 µM; in the assay on OVCAR-3 ovarian, 7.8 µM; in the assay with SN12C renal it was more than 100 µM; with M14 melanoma, 10 µM; with ACHN renal, more than 100 µM. Further, the TGI with HOP-92 NSCLC was 8.98 µM; with OVCAR-8 ovarian, 28 µM; in the assay with CCRF-CEM leukemia, 10.2 µM; in the assay with MALME-3M melanoma, 29.6 µM.

Turning to `COc1ccc(/C=c2/sc3n(c2=O)NC2(CCC(C)CC2)NN=3)cc1` (centres undefined), the TGI with EKVX NSCLC, in the assay on COLO 205 colon, in the assay with OVCAR-3 ovarian, in the assay with SN12C renal, with M14 melanoma and in the assay with ACHN renal was more than 100 µM in each case. Moreover, the TGI in the assay on HOP-92 NSCLC, in the assay on OVCAR-8 ovarian, in the assay with CCRF-CEM leukemia and in the assay on MALME-3M melanoma was more than 100 µM throughout.

For `CC1(C)C(=O)/C=C\C(=O)C(C)(C)C(=O)/C=C\C(=O)C(C)(C)C(=O)/C=C\C(=O)C(C)(C)C(=O)/C=C\C1=O`, the TGI was 69.6 µM with EKVX NSCLC; 33.2 µM in the assay with COLO 205 colon; 48.7 µM with OVCAR-3 ovarian; 54.8 µM with SN12C renal; 48.8 µM with M14 melanoma; more than 63.2 µM in the assay with ACHN renal. Moreover, the TGI amounted to 29.1 µM with HOP-92 NSCLC, 74.5 µM with OVCAR-8 ovarian, 23.4 µM in the assay with CCRF-CEM leukemia and 33.1 µM in the assay with MALME-3M melanoma.

`COc1ccc(/C(Cl)=C(\c2ccc(OCCN(C)C)cc2)c2ccc(OC(=O)C(C)(C)C)cc2)cc1`: the concentration for total growth inhibition (TGI) came out at 26.6 µM in the assay on EKVX NSCLC; 26.8 µM in the assay with COLO 205 colon; 28.5 µM in the assay with OVCAR-3 ovarian; 27.2 µM with SN12C renal; 12.1 µM in the assay with M14 melanoma; 29.5 µM in the assay with ACHN renal. The total growth inhibition concentration (TGI) in the assay with HOP-92 NSCLC was determined as 34 µM; in the assay on OVCAR-8 ovarian, 30.4 µM; with CCRF-CEM leukemia, 24.9 µM; with MALME-3M melanoma, 30 µM.

Consider `COC(=O)C(CBr)CBr`, for which the TGI stood at 21.5 µM in the assay on EKVX NSCLC; 3 µM in the assay with COLO 205 colon; 7.09 µM in the assay with OVCAR-3 ovarian; 9.28 µM in the assay on SN12C renal; 4.72 µM with M14 melanoma; 10.1 µM in the assay on ACHN renal. For the same compound, the TGI in the assay with HOP-92 NSCLC is 3.63 µM; in the assay on OVCAR-8 ovarian, 8.83 µM; in the assay with CCRF-CEM leukemia it was 1.83 µM; in the assay on MALME-3M melanoma, 4.93 µM.

As for `Cc1[nH]c(-c2nc3ccccc3[nH]2)c(C)c1C(=O)NC(C)C1CCCCC1` (centres undefined), the GI50 in the assay with EKVX NSCLC was 11.4 µM; with COLO 205 colon it was 18.3 µM; in the assay on OVCAR-3 ovarian, 9.72 µM; in the assay on SN12C renal it was 10.5 µM; in the assay on M14 melanoma, 3.28 µM; in the assay on ACHN renal, 14.4 µM. Further, the GI50 was 10.2 µM in the assay on HOP-92 NSCLC, 16.5 µM in the assay on OVCAR-8 ovarian, 5.49 µM in the assay with CCRF-CEM leukemia and 5.68 µM with MALME-3M melanoma. Further, the total growth inhibition concentration (TGI) in the assay on EKVX NSCLC was determined as 23.7 µM; in the assay on COLO 205 colon, 58 µM; in the assay on OVCAR-3 ovarian, 21.6 µM; in the assay on SN12C renal it was 26 µM; with M14 melanoma, 17.8 µM; with ACHN renal it was 30.2 µM. The TGI in the assay with HOP-92 NSCLC worked out at 25.3 µM; in the assay with OVCAR-8 ovarian, 39.5 µM; in the assay with CCRF-CEM leukemia, 21.4 µM; in the assay on MALME-3M melanoma, 22.5 µM.

Regarding `COC(=O)/C=C1/SC(N2N=C(c3cccs3)CC2c2ccc(F)cc2)=NC1=O` (centres undefined), the GI50 in the assay on EKVX NSCLC was 3.49 µM; in the assay on COLO 205 colon, 2.15 µM; in the assay on OVCAR-3 ovarian it was 2.19 µM; in the assay on SN12C renal, 3.29 µM; in the assay on M14 melanoma it was 2.25 µM; in the assay with ACHN renal, 1.89 µM. The GI50 was 2.4 µM in the assay on HOP-92 NSCLC, 2.59 µM in the assay with OVCAR-8 ovarian, 3 µM with CCRF-CEM leukemia and 2.44 µM with MALME-3M melanoma. Further, the TGI is 23.6 µM with EKVX NSCLC; 4.27 µM with COLO 205 colon; 5.27 µM with OVCAR-3 ovarian; 11 µM in the assay with SN12C renal; 5.17 µM with M14 melanoma; 3.47 µM in the assay on ACHN renal. Moreover, the TGI came to 5.67 µM in the assay on HOP-92 NSCLC, 7.66 µM in the assay on OVCAR-8 ovarian, 8.73 µM in the assay on CCRF-CEM leukemia and 8.51 µM with MALME-3M melanoma.

For the compound `CCCCCCCCCCCCCCCC(=O)OCC1OC(OC)C2NP(=O)(N(CCCl)CCCl)OC1C2O` (centres undefined), the total growth inhibition concentration (TGI) in the assay with EKVX NSCLC came to 47.4 µM; in the assay on COLO 205 colon, 13.5 µM; in the assay on OVCAR-3 ovarian, 10.7 µM; in the assay on SN12C renal, 24.8 µM; in the assay on M14 melanoma it was 18.1 µM; in the assay with ACHN renal, 40.6 µM. Further, the TGI in the assay with HOP-92 NSCLC was 5.51 µM; in the assay with OVCAR-8 ovarian, 13.5 µM; in the assay with CCRF-CEM leukemia it was 9.26 µM; with MALME-3M melanoma it was 34.1 µM.

With `Cc1ccc(C(SCC(N)C(=O)O)(c2ccccc2)c2ccccc2)cc1` (centres undefined), the GI50 in the assay on EKVX NSCLC is 0.21 µM; in the assay on COLO 205 colon it was 0.098 µM; in the assay on OVCAR-3 ovarian, 0.0391 µM; in the assay with SN12C renal, 0.13 µM; in the assay on M14 melanoma, 0.0247 µM; with ACHN renal, 2.67 µM. The GI50 is 0.288 µM in the assay with HOP-92 NSCLC, 0.139 µM with OVCAR-8 ovarian and 0.0832 µM with CCRF-CEM leukemia. Also, the TGI with EKVX NSCLC was more than 100 µM; in the assay on COLO 205 colon, 0.95 µM; in the assay on OVCAR-3 ovarian it was 0.158 µM; in the assay on SN12C renal it was more than 65.9 µM; in the assay with M14 melanoma it was 0.0663 µM; in the assay with ACHN renal, more than 100 µM. For the same compound, the TGI was 73.1 µM with HOP-92 NSCLC, more than 100 µM with OVCAR-8 ovarian, more than 100 µM in the assay on CCRF-CEM leukemia and more than 100 µM in the assay on MALME-3M melanoma.
